How the values were obtained:
HIV-1 strain IIIB [1] = experiment: Amount of HIV-1 produced (HIV-1 p24 Antigen ELISA) in HIV-1-infected human peripheral blood mononuclear cells; type: cell-based
[2] = test system: HIV-1-infected human peripheral blood mononuclear cells; experiment: Cell viability (dye method) in HIV-1 chronically infected cell model derived from human peripheral blood mononuclear cells; details: for effect on the cell death-inducing effect specific for HIV-1-infected cells due to entinostat: Example 2: combination with entinostat 0.5 μM after protease inhibitor pretreatment; for cell death-inducing effect specific for HIV-1-infected cells: Example 4: treatment after 11 days culture
Description: Healthy donor-derived peripheral blood mononuclear cells were infected with HIV-1 strain IIIB in vitro to prepare an HIV-1 chronically infected cell model derived from human peripheral blood mononuclear cells, and a combination effect of an HIV-1 protease inhibitor (NFV or SQV) and an HDAC inhibitor (entinostat or vorinostat) was examined.
After HIV-1 infection or pseudo-infection (=mock-infection), the cells were cultured for 7 days and treated with various concentrations of each HIV-1 protease inhibitor for 3 days. For 3 days thereafter, treatment was carried out using combinations of each HIV-1 protease inhibitor having the same concentration and each HDAC inhibitor. The cell viability in each sample was measured by a dye method, and the amount of HIV-1 produced, by an ELISA method (HIV-1 p24 Antigen ELISA). […]

[3] = test system: HIV-1 latently infected cells (reservoir cells); details: literature report (Johnstone 2002); cited from earlier work
Cleaved caspase-3 = experiment: Western blot of cleaved caspase-3 in CD4T; type: cell-based, human; details: entinostat 0.5 μM
Description: (§1) The extracted protein was analyzed by a Western blot method.
(§2) The expression of each of Cleaved caspase-3 and Cleaved PARP was corrected with the expression of β-tublin as an internal control to make a graph.

Cleaved PARP = experiment: Western blot of cleaved PARP in CD4T; type: cell-based, human
Description: as §1, §2

[4] = test system: HIV-1-infected CD4-positive T lymphocytes (CD4T); experiment: Cell viability (dye method) in CD4T-derived HIV-1 chronically infected cell model; type: cell-based, human; details: for cell death-inducing effect specific for HIV-1-infected cells in CD4T: Example 5: treated 4 days from day 3 or from day 7 after infection; for effect on the cell death-inducing effect specific for HIV-1-infected cells due to entinostat: Example 6, CD4T, combination with entinostat
Description: In this Example, the action of various HDAC inhibitors on HIV-1-infected CD4T was analyzed using CD4T purified from human peripheral blood mononuclear cells.
(§3) In this Example, it was examined whether combined use with an HIV-1 reverse transcriptase inhibitor provided the same effect, by conducting a combination experiment with entinostat according to the experimental procedure shown in FIG. 13 using tenofovir (TFV) as one of the clinically most used HIV-1 reverse transcriptase inhibitors.
as §3, with “Then,” for “In this Example,”, “integrase” for “reverse transcriptase”, “effect” for “effect,”, “15” for “13”, “dolutegravir (DTG)” for “tenofovir (TFV)”

HIV-1 strain IIIB [5] = experiment: Amount of HIV-1 produced (HIV-1 p24 Antigen ELISA) in HIV-1-infected CD4T; type: cell-based
Description: as §3
as §3, with “Then,” for “In this Example,”, “integrase” for “reverse transcriptase”, “effect” for “effect,”, “15” for “13”, “dolutegravir (DTG)” for “tenofovir (TFV)”

[6] = test system: mock-infected CD4-positive T lymphocytes (CD4T); experiment: Cell viability (dye method) of mock-infected CD4T; type: cell-based, human; details: Example 5, CD4T
[7] = test system: mock-infected human peripheral blood mononuclear cells; experiment: Cell viability (dye method) of mock-infected human peripheral blood mononuclear cells; type: cell-based; details: Example 4
Description: After HIV-1 infection or pseudo-infection (=mock-infection), the cells were cultured for 7 days and treated with various concentrations of each HIV-1 protease inhibitor for 3 days. For 3 days thereafter, treatment was carried out using combinations of each HIV-1 protease inhibitor having the same concentration and each HDAC inhibitor. The cell viability in each sample was measured by a dye method, and the amount of HIV-1 produced, by an ELISA method (HIV-1 p24 Antigen ELISA).
After HIV-1 infection or pseudo-infection (=mock-infection), culture was performed for 11 days, and for 3 days from day 12, the combined administration of each HIV-1 protease inhibitor having various concentrations and the HDAC inhibitor was carried out. The cell viability in each sample was measured by a dye method, and the amount of HIV-1 produced, by an ELISA method (HIV-1 p24 Antigen ELISA).
After HIV-1 infection or pseudo-infection (=mock-infection), the cells were cultured for 11 days and treated with various concentrations of each HDAC inhibitor. The cell viability in each sample was measured by a dye method, and the amount of HIV-1 produced, by an ELISA method (HIV-1 p24 Antigen ELISA).

[8] = Example 2: protease inhibitor pretreatment 3 days, then combination 3 days, in the presence of entinostat of 0.5 μM
[9] = Example 3: simultaneous administration with entinostat, no pretreatment, 3 days from day 12

Compound: CC(C)(C)NC(=O)[C@@H]1C[C@@H]2CCCC[C@@H]2CN1C[C@@H](O)[C@H](Cc1ccccc1)NC(=O)[C@H](CC(N)=O)NC(=O)c1ccc2ccccc2n1 [SQV, saquinavir]
- HIV-1 production (HIV-1 strain IIIB [1]; [8]): concentration-dependently suppressed HIV-1 production
- effect on the cell death-inducing effect specific for HIV-1-infected cells due to entinostat [2]: did not affect

Compound: Cc1c(O)cccc1C(=O)N[C@@H](CSc1ccccc1)[C@H](O)CN1C[C@H]2CCCC[C@H]2C[C@H]1C(=O)NC(C)(C)C [nelfinavir]
- HIV-1 production (HIV-1 strain IIIB [1]; [8]): concentration-dependently suppressed HIV-1 production
- HIV-1 production (HIV-1 strain IIIB [1]; [9]): suppressing HIV-1 production
- effect on the cell death-inducing effect specific for HIV-1-infected cells due to entinostat [2]: did not affect

Compound: Nc1ccccc1NC(=O)c1ccc(CNC(=O)OCc2cccnc2)cc1 [entinostat]
- activation of HIV-1 latently infected cells to induce HIV-1 production [3]: activate HIV-1 latently infected cells
- increase of cleaved caspase-3 in HIV-1-infected CD4T versus pseudo-infected CD4T (Cleaved caspase-3; 24 hours): more marked
- activated form of caspase-3 (cleaved caspase-3) expression (Cleaved caspase-3; 24 hours, pseudo-infected CD4T (Mock) and HIV-1-infected CD4T (HIV)): increase
- increase in activated form of caspase-3 (Cleaved caspase-3; 48 hours, pseudo-infected CD4T and HIV-1-infected CD4T): not observed
- effect of the HDAC inhibitor on HIV-1 production in infected cells (HIV-1 strain IIIB [1]; entinostat alone): activates HIV-1 production
- cleaved PARP expression (Cleaved PARP; entinostat 0.5 μM, 24 hours, pseudo-infected CD4T and HIV-1-infected CD4T): increase in the cleaved PARP was observed
- expression of PARP (cleaved) (Cleaved PARP; entinostat, 48 hours, HIV-1-infected CD4T): markedly increased
- cell death-inducing effect specific for HIV-1-infected cells in CD4T [4]: cell death-inducing effect specific for HIV-1-infected cells
- cell death-inducing effect specific for HIV-1-infected cells [2]: cell death-inducing effect specific for HIV-1-infected cells
- viability at 0.5 µM ([2]; Homo sapiens, PBMC, read-out: cell viability of HIV-1-infected cells relative to cell viability of pseudo-infected (non-infected) cells): ~50%

Compound: C[C@H](Cn1cnc2c(N)ncnc21)OCP(=O)(O)O [tenofovir]
- concentration at which HIV-1 production was still not suppressed (HIV-1 strain IIIB [5]; Example 6, CD4T, irrespective of the presence or absence of entinostat): > 1 µM
- effect on the cell death-inducing effect specific for HIV-1-infected cells due to entinostat [4]: did not affect

Compound: CC(C)CN(C[C@@H](O)[C@H](Cc1ccccc1)NC(=O)O[C@H]1CO[C@H]2OCC[C@H]21)S(=O)(=O)c1ccc(N)cc1 [darunavir]
- activation of HIV-1 production by entinostat (HIV-1 strain IIIB [5]; Example 6: 100 nM, administered simultaneously with entinostat, CD4T): strongly suppressing
- concentration that strongly suppressed the increase in HIV-1 production due to entinostat (HIV-1 strain IIIB [1]; Example 3: simultaneous administration with entinostat): ≥ 100 nM
- HIV-1 production (HIV-1 strain IIIB [1]; [9]): suppressing HIV-1 production

Compound: C[C@@H]1CCO[C@H]2Cn3cc(C(=O)NCc4ccc(F)cc4F)c(=O)c(O)c3C(=O)N12 [dolutegravir]
- anti-HIV-1 effect (HIV-1 strain IIIB [5]; Example 6, CD4T, in the absence of entinostat): hardly had an anti-HIV-1 effect
- effect on the cell death-inducing effect specific for HIV-1-infected cells due to entinostat [4]: did not affect

Compound: chidamide
- toxicity to mock-infected cells compared to entinostat [6]: less toxic
- toxicity to mock-infected cells compared with entinostat [7]: less toxic
- cell death-inducing effect against infected cells compared to entinostat ([4]; Example 5, CD4T): weaker cell death-inducing effect
- cell death-inducing effect specific for HIV-1-infected cells in CD4T [4]: cell death-inducing effect specific for HIV-1-infected cells
- cell death-inducing effect specific for HIV-1-infected cells compared with entinostat ([2]; Example 4): weaker cell death-inducing effect
- cell death-inducing effect specific for HIV-1-infected cells [2]: cell death-inducing effect specific for HIV-1-infected cells

Compound: O=C(CCCCCCC(=O)Nc1ccccc1)NO [vorinostat]
- activation of HIV-1 latently infected cells to induce HIV-1 production [3]: activate HIV-1 latently infected cells
- cell death-inducing effect specific for HIV-1-infected cells in CD4T [4]: no cell death-inducing effect specific for HIV-1-infected cells

From patent US20170312296A1, “AGENTS FOR KILLING HIV-1-INFECTED CELLS AND APPLICATION THEREOF” (KAGOSHIMA UNIVERSITY, priority 2015, published 2017)
